Experimental data as given in the NIST ThermoML archive (doi:10.1016/j.jct.2004.12.008).

Assay: xn = mol fraction of the nth substance listed
Details: 101 kPa, Liquid

O=[N+]([O-])c1ccccc1 [nitrobenzene] + Cc1cccc(C)c1
Details	mass density [kg/m3]
293.15 K, x2 = 0	1202.95
293.15 K, x2 = 0.0549	1181.56
293.15 K, x2 = 0.1248	1154.92
293.15 K, x2 = 0.1832	1133.14
293.15 K, x2 = 0.2489	1109.13
293.15 K, x2 = 0.3134	1086.03
293.15 K, x2 = 0.3681	1066.8
293.15 K, x2 = 0.4234	1047.66
293.15 K, x2 = 0.4892	1025.28
293.15 K, x2 = 0.5321	1010.91
293.15 K, x2 = 0.6013	988.09
293.15 K, x2 = 0.6539	971.01
293.15 K, x2 = 0.7242	948.56
293.15 K, x2 = 0.7811	930.68
293.15 K, x2 = 0.8631	905.36
293.15 K, x2 = 0.9321	884.44
303.15 K, x2 = 0	1193.56
303.15 K, x2 = 0.0478	1174.85
303.15 K, x2 = 0.1132	1149.78
303.15 K, x2 = 0.1812	1124.32
303.15 K, x2 = 0.2343	1104.85
303.15 K, x2 = 0.2943	1083.27
303.15 K, x2 = 0.3535	1062.36
303.15 K, x2 = 0.4143	1041.29
303.15 K, x2 = 0.4711	1021.95
303.15 K, x2 = 0.5243	1004.13
303.15 K, x2 = 0.6123	975.24
303.15 K, x2 = 0.6811	953.14
303.15 K, x2 = 0.7423	933.82
303.15 K, x2 = 0.8132	911.82
303.15 K, x2 = 0.8834	890.44
303.15 K, x2 = 0.9432	872.53
313.15 K, x2 = 0	1183.37
313.15 K, x2 = 0.0723	1155.17
313.15 K, x2 = 0.1289	1133.64
313.15 K, x2 = 0.1732	1117.09
313.15 K, x2 = 0.2212	1099.45
313.15 K, x2 = 0.2811	1077.85
313.15 K, x2 = 0.3635	1048.82
313.15 K, x2 = 0.4244	1027.87
313.15 K, x2 = 0.4823	1008.31
313.15 K, x2 = 0.5423	988.4
313.15 K, x2 = 0.6131	965.35
313.15 K, x2 = 0.6732	946.15
313.15 K, x2 = 0.749	922.4
313.15 K, x2 = 0.8313	897.16
313.15 K, x2 = 0.8724	884.76
313.15 K, x2 = 0.9331	866.7
323.15 K, x2 = 0	1172.38
323.15 K, x2 = 0.0698	1145.18
323.15 K, x2 = 0.1321	1121.54
323.15 K, x2 = 0.1832	1102.55
323.15 K, x2 = 0.2576	1075.53
323.15 K, x2 = 0.3139	1055.55
323.15 K, x2 = 0.3781	1033.23
323.15 K, x2 = 0.4527	1007.89
323.15 K, x2 = 0.5198	985.6
323.15 K, x2 = 0.5631	971.45
323.15 K, x2 = 0.6398	946.86
323.15 K, x2 = 0.7043	926.6
323.15 K, x2 = 0.7731	905.4
323.15 K, x2 = 0.8343	886.88
323.15 K, x2 = 0.8623	878.51
323.15 K, x2 = 0.9423	854.95
333.15 K, x2 = 0	1160.59
333.15 K, x2 = 0.0499	1141.14
333.15 K, x2 = 0.1244	1112.83
333.15 K, x2 = 0.1674	1096.86
333.15 K, x2 = 0.234	1072.65
333.15 K, x2 = 0.3089	1046.1
333.15 K, x2 = 0.3598	1028.47
333.15 K, x2 = 0.4242	1006.59
333.15 K, x2 = 0.4972	982.35
333.15 K, x2 = 0.5672	959.63
333.15 K, x2 = 0.6319	939.07
333.15 K, x2 = 0.7133	913.77
333.15 K, x2 = 0.7632	898.55
333.15 K, x2 = 0.8347	877.13
333.15 K, x2 = 0.8824	863.08
333.15 K, x2 = 0.9323	848.58
343.15 K, x2 = 0	1148
343.15 K, x2 = 0.0598	1124.88
343.15 K, x2 = 0.1123	1105.06
343.15 K, x2 = 0.1842	1078.58
343.15 K, x2 = 0.2542	1053.5
343.15 K, x2 = 0.3243	1029.04
343.15 K, x2 = 0.3831	1008.98
343.15 K, x2 = 0.4425	989.14
343.15 K, x2 = 0.5131	966.07
343.15 K, x2 = 0.5728	946.96
343.15 K, x2 = 0.6392	926.14
343.15 K, x2 = 0.6901	910.47
343.15 K, x2 = 0.7532	891.38
343.15 K, x2 = 0.8242	870.31
343.15 K, x2 = 0.8731	856.05
343.15 K, x2 = 0.9238	841.48
353.15 K, x2 = 0	1134.61
353.15 K, x2 = 0.0532	1114.19
353.15 K, x2 = 0.1289	1085.92
353.15 K, x2 = 0.1984	1060.73
353.15 K, x2 = 0.2429	1044.96
353.15 K, x2 = 0.3092	1021.96
353.15 K, x2 = 0.3711	1000.98
353.15 K, x2 = 0.4248	983.16
353.15 K, x2 = 0.4891	962.26
353.15 K, x2 = 0.5518	942.3
353.15 K, x2 = 0.6138	922.97
353.15 K, x2 = 0.6731	904.84
353.15 K, x2 = 0.7294	887.93
353.15 K, x2 = 0.8013	866.76
353.15 K, x2 = 0.8673	847.71
353.15 K, x2 = 0.9451	825.73
